The values that follow come from US10626106B2, “Substituted pyrrolidine amides I” (Gruenenthal GmbH, priority 2017, dated 2020).

Molecules are shown by their SMILES.

One assay addresses T1, Human Glucocorticoid Receptor (hGR) (Homo sapiens, UniProt P04150).
T1 construct: the resultant supernatant (=cytosol of IM9 cells) was centrifuged at 103,000 g for 60 minutes; host or cells: IM9 human lymphoblast cell line (cytosol fraction)
T1 sequence (P04150 1-777): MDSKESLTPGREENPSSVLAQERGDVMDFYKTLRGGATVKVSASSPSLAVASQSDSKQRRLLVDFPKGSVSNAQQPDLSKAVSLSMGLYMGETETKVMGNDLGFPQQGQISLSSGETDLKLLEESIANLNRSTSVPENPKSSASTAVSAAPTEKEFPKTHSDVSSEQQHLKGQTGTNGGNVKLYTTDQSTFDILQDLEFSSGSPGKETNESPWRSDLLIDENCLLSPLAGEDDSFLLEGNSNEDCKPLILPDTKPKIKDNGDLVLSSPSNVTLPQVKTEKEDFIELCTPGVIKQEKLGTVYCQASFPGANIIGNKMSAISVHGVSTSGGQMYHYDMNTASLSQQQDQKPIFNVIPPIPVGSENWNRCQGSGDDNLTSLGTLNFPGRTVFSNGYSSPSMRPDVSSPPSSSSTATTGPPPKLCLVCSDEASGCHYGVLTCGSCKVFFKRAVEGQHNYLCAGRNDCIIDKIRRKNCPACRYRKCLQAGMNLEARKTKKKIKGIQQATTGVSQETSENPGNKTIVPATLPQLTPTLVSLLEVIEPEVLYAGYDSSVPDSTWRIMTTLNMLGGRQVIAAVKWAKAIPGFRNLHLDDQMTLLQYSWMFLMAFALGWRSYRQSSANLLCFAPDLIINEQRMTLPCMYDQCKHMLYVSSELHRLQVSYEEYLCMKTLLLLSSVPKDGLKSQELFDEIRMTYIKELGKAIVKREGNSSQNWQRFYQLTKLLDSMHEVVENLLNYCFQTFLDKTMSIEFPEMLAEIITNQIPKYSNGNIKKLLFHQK
Kind of assay: Human Glucocorticoid Receptor (hGR) Ligand-Binding Assay (competitive 3H-dexamethasone binding, IM9 cytosol). Conditions: compound at 1 μM; competition with 3H-dexamethasone; cytosol of IM9 cells; read-out: % inhibition hGR at 1 μM. An excerpt: Human Glucocorticoid Receptor (hGR) Ligand-Binding Assay
Potential selective glucocorticoid receptor modulators of this intervention can be tested for their binding affinity at the glucocorticoid receptor using the binding assay described below.
Preferably, the glucocortitcoid receptor extracted from cytosol of IM9 cells is used for competitive radioligand binding assays to calculate the IC50 values and binding affinity (Ki value) of the compounds according to the present invention. Preferably, a fixed concentration of the radioligand 3H-dexamethasone and a range of concentrations of compounds according to the present invention (as unlabeled competitors of dexamethasone) are mixed with the extracted glucocorticoid receptor in order to measure the potency/affinity with which they compete for the binding of the radioligand. Preferably, by using competition curves the IC50 which is the concentration of competing ligand that displaces 50% of the specific binding of the radioligand is determined. Finally this IC50 value is converted to a Ki value.
The human lymphoblast cell line IM9 (ATCC, Bethesda, Md.) were cultivated in RPMI 1640 media containing 10% fetal bovine serum, penicillin (100 U/ml), streptomycin (100 μg/ml), and 2 mM L-glutamine at […] and 7% CO2 in a humidified incubator. Cells were centrifuged for 10 minutes at 1500 g and were washed in PBS and repelleted. Cell were then resuspended in homogenization buffer consisting of: 10 mM TES, 10 mM sodium molybdate, 1 mM EDTA, pH 7.4, 20 mM 2-mercaptoethanol, and 10% glycerol. Disruption of the cells was performed by nitrogen cavitation using 2×15 minutes at 600 to 750 psi nitrogen in a N2 cavitator at 0° C. The cell preparation was then centrifuged at 27,000 g for 15 minutes, and the resultant supernatant (=cytosol of IM9 cells) was centrifuged at 103,000 g for 60 minutes at 4° C. The amount of protein in the supernatant fraction was determined using a BCA assay kit and aliquots were snap frozen in a dry ice-acetone bath and stored at −70° C. Competitive binding assays were done in duplicate in homogenization buffer with a total volume of 200 μl. To this end, 1 mg of IM9 cytosol, 0.05 μCi (1.5 nM) of 3H-dexamethasone […] and compounds according to the present invention (=unlabeled competitors of dexamethasone; range of concentrations) were mixed. The reaction was stopped after incubation at 0° C. for 16 to 18 hours by the addition of 100 μl of a charcoal-dextran mixture (2% activated charcoal, 0.5% dextran in 10 mM Tris, 1 mM EDTA, pH 7.4). Another incubation step at 0° C. for 10 minutes followed before the samples were centrifuged for 5 minutes at 8200 g. 100 μl of the supernatant) was finally assayed for radioactivity by liquid scintillationspectrometry, and the IC50 values were determined graphically and were converted to Ki values.
For `COc1ccc(Cn2ncc3cc(N4C(=O)C[C@H](NC(=O)C(C)(F)F)[C@H]4c4ccccc4)ccc32)cn1` (relative stereo) [Example 33, trans-2,2-difluoro-N-(1-(1-((6-methoxypyridin-3-yl)methyl)-1H-indazol-5-yl)-5-oxo-2-phenylpyrrolidin-3-yl)propanamide], the inhibition at 1 µM is greater than 85%.
`Cn1cc(-n2ncc3cc(N4C(=O)C[C@H](NC(=O)[C@H]5CCCO5)[C@H]4c4ccccc4)ccc32)ccc1=O` [Example 48, (R)—N-[(2R,3S)-1-[1-(1-methyl-6-oxo-3-pyridyl)indazol-5-yl]-5-oxo-2-phenyl-pyrrolidin-3-yl]tetrahydrofuran-2-carboxamide]: the inhibition at 1 µM lay in the range of 60 to 85%.
As for `Cn1cc(-n2ncc3cc(N4C(=O)C[C@H](NC(=O)C5CC5)[C@H]4c4ccccc4F)ccc32)ccc1=O` [Example 39, N-((2R,3S)-2-(2-fluorophenyl)-1-(1-(1-methyl-6-oxo-1,6-dihydropyridin-3-yl)-1H-indazol-5-yl)-5-oxopyrrolidin-3-yl)cyclopropanecarboxamide], the inhibition at 1 µM was in the range of 60 to 85%.
The same measure, in the same setting: with `Cn1cc(-n2ncc3cc(N4C(=O)C[C@H](NC(=O)C(C)(F)F)[C@H]4c4cccc(Cl)c4)ccc32)ccc1=O` [Example 1, N-((2R,3S)-2-(3-chlorophenyl)-1-(1-(1-methyl-6-oxo-1,6-dihydropyridin-3-yl)-1H-indazol-5-yl)-5-oxopyrrolidin-3-yl)-2,2-difluoropropanamide] the figure was greater than 85%; with `CC(F)(F)C(=O)N[C@H]1CC(=O)N(c2ccc3c(cnn3C3CCN(C(=O)C4CC4)CC3)c2)C1c1ccccc1` (stereo in doubt) [Example 35, trans-2,2-difluoro-N-(1-(1-(1-(cyclopropanecarbonyl)piperidin-4-yl)-1H-indazol-5-yl)-5-oxo-2-phenylpyrrolidin-3-yl)propanamide], 60 to 85%.
For `Cn1cc(-n2ncc3cc(N4C(=O)C[C@H](NC(=O)C5(C)CC5)[C@H]4c4ccccc4)ccc32)ccc1=O` [Example 26, 1-methyl-N-((2R,3S)-1-(1-(1-methyl-6-oxo-1,6-dihydropyridin-3-yl)-1H-indazol-5-yl)-5-oxo-2-phenylpyrrolidin-3-yl)cyclopropane-1-carboxamide], the inhibition at 1 µM was 60 to 85%.
Consider `Cn1cc(-n2ncc3cc(N4C(=O)C[C@H](NC(=O)c5ncco5)[C@H]4c4ccccc4)ccc32)ccc1=O` [Example 49, N-[(2R,3S)-1-[1-(1-methyl-6-oxo-3-pyridyl)indazol-5-yl]-5-oxo-2-phenyl-pyrrolidin-3-yl]oxazole-2-carboxamide], for which the inhibition at 1 µM was greater than 85%.

Still in this assay, the particulars now being: read-out: % inhibition hGR at 1 μM.
For the molecule `Cn1cc(-n2ncc3cc(N4C(=O)C[C@H](NC(=O)C(C)(F)F)C4c4ccccc4)ccc32)cn1` (stereo in doubt) [Example 46, N-(trans-1-(1-(1-methyl-1H-pyrazol-4-yl)-1H-indazol-5-yl)-5-oxo-2-phenylpyrrolidin-3-yl)-2,2-difluoropropanamide], the inhibition at 1 µM was greater than 85%.
For the molecule `CC(F)(F)C(=O)N[C@H]1CC(=O)N(c2ccc3c(cnn3-c3cccnc3)c2)C1c1ccccc1` (stereo in doubt) [Example 7, trans-2,2-difluoro-N-(5-oxo-2-phenyl-1-(1-(pyridin-3-yl)-1H-indazol-5-yl)pyrrolidin-3-yl)propanamide], the inhibition at 1 µM was greater than 85%.
Regarding `Cc1ccc(-n2ncc3cc(N4C(=O)C[C@H](NC(=O)C(C)(F)F)C4c4ccccc4)ccc32)cn1` (stereo in doubt) [Example 24, trans-2,2-difluoro-N-(1-(1-(6-methylpyridin-3-yl)-1H-indazol-5-yl)-5-oxo-2-phenylpyrrolidin-3-yl)propanamide], the inhibition at 1 µM lay within 60 to 85%.
`CC(F)(F)C(=O)N[C@H]1CC(=O)N(c2ccc3c(cnn3-c3ccncc3)c2)C1c1ccccc1` (stereo in doubt) [Example 23, trans-2,2-difluoro-N-(5-oxo-2-phenyl-1-(1-(pyridin-4-yl)-1H-indazol-5-yl)pyrrolidin-3-yl)propanamide]: the inhibition at 1 µM was greater than 85%.

One may read the inhibition as the relative decrease from the control value, in per cent.
